Reference: PubChem BioAssay AID1963967 (Molecular Pharmacology Branch, DTP, NCI, 2024)

Test system: 855422-203-R-J1-PDC spheroids with HUVEC/MSC, viability
Experiment: Anticancer human tumor 855422-203-R-J1-PDC patient-derived bladder carcinoma cell line growth inhibition [PI3K]
Details: for IC50: curve of first compound; for viability, T/C: stronger effect = lower value; active means viability on the fitted dose curve at most 10% of control; inactive means the rest
Method in brief: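 Spheroid viability read-out. Co-cultures contained the tumor line plus HUVEC and human MSCs. Each agent was paired with a PI3K inhibitor (inavolisib, alpelisib, duvelisib, copanlisib) across half-log dilutions starting at clinical Cmax, or at 10 microM when Cmax was unknown.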

[1] = second compound 0.0316 µM, first compound 0.0316 µM
[2] = second compound 0.0316 µM, first compound 0.1 µM
[3] = second compound 0.0316 µM, first compound 0.316 µM
[4] = second compound 0.0316 µM, first compound 1 µM
[5] = second compound 0.0316 µM, first compound 3.16 µM
[6] = second compound 0.0316 µM, first compound 10 µM
[7] = second compound 0.1 µM, first compound 0.0316 µM
[8] = second compound 0.1 µM, first compound 0.1 µM
[9] = second compound 0.1 µM, first compound 0.316 µM
[10] = second compound 0.1 µM, first compound 1 µM
[11] = second compound 0.1 µM, first compound 3.16 µM
[12] = second compound 0.1 µM, first compound 10 µM
[13] = second compound 0.316 µM, first compound 0.0316 µM
[14] = second compound 0.316 µM, first compound 0.1 µM
[15] = second compound 0.316 µM, first compound 0.316 µM
[16] = second compound 0.316 µM, first compound 1 µM
[17] = second compound 0.316 µM, first compound 3.16 µM
[18] = second compound 0.316 µM, first compound 10 µM
[19] = second compound 1 µM, first compound 0.0316 µM
[20] = second compound 1 µM, first compound 0.1 µM
[21] = second compound 1 µM, first compound 0.316 µM
[22] = second compound 1 µM, first compound 1 µM
[23] = second compound 1 µM, first compound 3.16 µM
[24] = second compound 1 µM, first compound 10 µM
[25] = second compound 3.16 µM, first compound 0.0316 µM
[26] = second compound 3.16 µM, first compound 0.1 µM
[27] = second compound 3.16 µM, first compound 0.316 µM
[28] = second compound 3.16 µM, first compound 1 µM
[29] = second compound 3.16 µM, first compound 3.16 µM
[30] = second compound 3.16 µM, first compound 10 µM
[31] = second compound 10 µM, first compound 0.0316 µM
[32] = second compound 10 µM, first compound 0.1 µM
[33] = second compound 10 µM, first compound 0.316 µM
[34] = second compound 10 µM, first compound 1 µM
[35] = second compound 10 µM, first compound 3.16 µM
[36] = second compound 10 µM, first compound 10 µM
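Further: agents incubated with spheroids for one week before read-out.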
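Wherever viability, T/C is given: 100% = DMSO vehicle-treated control wells.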

C#Cc1c(F)ccc2cc(O)cc(-c3ncc4c(N5CC6CCC(C5)N6)nc(OCC56CCCN5CC(F)C6)nc4c3F)c12 (centres undefined) + Cc1nc(NC(=O)N2CCCC2C(N)=O)sc1-c1ccnc(C(C)(C)C(F)(F)F)c1
> 10000 nM: IC50 (second compound 0.0316 µM) | IC50 (second compound 0.1 µM) | IC50 (second compound 0.316 µM) | IC50 (second compound 1 µM)
inactive: viability, T/C [1] 106% | viability, T/C [2] 92.8% | viability, T/C [3] 108% | viability, T/C [4] 95% | viability, T/C [5] 115% | viability, T/C [6] 115% | viability, T/C [7] 100% | viability, T/C [8] 88.6% | viability, T/C [9] 103% | viability, T/C [10] 93.9% | viability, T/C [11] 115% | viability, T/C [12] 113% | viability, T/C [13] 91.5% | viability, T/C [14] 92.9% | viability, T/C [15] 97.6% | viability, T/C [16] 94.4% | viability, T/C [17] 97.4% | viability, T/C [18] 102% | viability, T/C [19] 70.5% | viability, T/C [20] 78.3% | viability, T/C [21] 70.7% | viability, T/C [22] 73.2% | viability, T/C [23] 75% | viability, T/C [24] 63.3% | viability, T/C [25] 41.5% | viability, T/C [26] 48.6% | viability, T/C [27] 47.1% | viability, T/C [28] 42.9% | viability, T/C [29] 40.6% | viability, T/C [30] 31.8% | viability, T/C [31] 24.6% | viability, T/C [32] 21.5% | viability, T/C [33] 22.7% | viability, T/C [34] 22.3% | viability, T/C [35] 19% | viability, T/C [36] 7.62%
< 31.6 nM: IC50 (second compound 3.16 µM) | IC50 (second compound 10 µM)

CC1(C)CCC(Nc2ncc(C(F)(F)F)c(-c3c[nH]c4c(P(C)(C)=O)c(C#N)ccc34)n2)CN1 (centres undefined) + Cc1nc(NC(=O)N2CCCC2C(N)=O)sc1-c1ccnc(C(C)(C)C(F)(F)F)c1
< 31.6 nM: IC50 (second compound 0.0316 µM) | IC50 (second compound 0.1 µM) | IC50 (second compound 0.316 µM) | IC50 (second compound 1 µM) | IC50 (second compound 3.16 µM) | IC50 (second compound 10 µM)
inactive: viability, T/C [1] 27% | viability, T/C [2] 25.1% | viability, T/C [3] 25.5% | viability, T/C [4] 29.4% | viability, T/C [5] 26.9% | viability, T/C [6] 7.04% | viability, T/C [7] 26% | viability, T/C [8] 23.9% | viability, T/C [9] 25% | viability, T/C [10] 26.7% | viability, T/C [11] 28% | viability, T/C [12] 7.41% | viability, T/C [13] 22.5% | viability, T/C [14] 23% | viability, T/C [15] 25% | viability, T/C [16] 22% | viability, T/C [17] 18.5% | viability, T/C [18] 5.22% | viability, T/C [19] 20.2% | viability, T/C [20] 20.2% | viability, T/C [21] 18.7% | viability, T/C [22] 19.6% | viability, T/C [23] 17.5% | viability, T/C [25] 16.3% | viability, T/C [26] 15.4% | viability, T/C [27] 13.3% | viability, T/C [28] 12.9% | viability, T/C [31] 11.8% | viability, T/C [32] 10.2%
active: viability, T/C [24] 2.99% | viability, T/C [29] 10.8% | viability, T/C [30] 0.7% | viability, T/C [33] 8.26% | viability, T/C [34] 8.63% | viability, T/C [35] 6.11% | viability, T/C [36] 0.26%
